Values after ≈ are worked out from the molar mass of the structure shown.

The values that follow come from patent US9427468B2, “Compositions and methods for diagnosing and treating community-acquired methicillin-resistant Staphylococcus aureus” (priority 2007, dated 2016).

The test system of assay [1] is Mu50 wild-type. As to the kind of experiment: MIC by microdilution (CLSI). It is filed as cell-based, Staphylococcus aureus. To be noted: Staphylococcus aureus, read-out: MICs. From the text: (§1) Experiments were first performed using mutants of various PBPs. In-frame deletion mutants of the genes encoding PBP3 (MW1504) and PBP4 (MW0604), pbp3 and pbp4 respectively, were generated in the CA-MRSA strain MW2 and in HA-MRSA strain COL using the temperature-sensitive allelic replacement vector pMAD (Arnaud, M. et al. 2004. Appl. Environ. Microbiol. 70:6887-6891). PBP4 was also deleted in the HA-MRSA strains Mu50 and N315 and in the CA-MRSA strain USA300. […] Minimum inhibitory concentrations (MICs) were determined according to the Clinical and Laboratory Standards Institute and are a standard method for defining antibiotic efficacy against different organisms. Bacteria, grown to an OD650=1, were added to cation-supplemented Mueller Hinton broth (CSMHB) to achieve a final concentration of 5×10^5 CFU/ml.
(§2) Minimum inhibitory concentrations and minimum bactericidal concentrations (MIC and MBC, respectively) were determined for each isolate in triplicate by microdilution techniques with an inoculum of 5×10^5 CFU/ml according to the Clinical and Laboratory Standards Institute guidelines. Aliquots (5 μl) from clear wells were plated onto TSA drug-free plates for the determination of MBCs, followed by incubation at 37° C. for 24 and 48 hours. For the mutant strains, each one of the three clones was tested. MIC data were reported as median values from at least three independent experiments for each antibiotic. Also, strains containing pEPSA5-based plasmids were tested with and without xylose induction, but chloramphenicol was not added to avoid interference with beta-lactam resistance evaluation. […] The correct inocula were confirmed by plating serial dilutions on agar.
In general terms: In broth dilution the organism is exposed to a series of concentrations in liquid medium.

For assay [2], the system named is MW2 ex Δpbp3/4. The experiment in a line: MIC by microdilution (CLSI). To be noted: Staphylococcus aureus, read-out: MICs. It is filed as cell-based, Staphylococcus aureus.
Description: as §1, §2

In assay [3] the test system is MW2 ex (MW2 cured of plasmid pMW2). As to the kind of experiment: MIC by microdilution (CLSI). In kind it is cell-based. To be noted: Staphylococcus aureus, Table 1.
Description: as §1, §2

The subject of assay [4] is MW2 ex Δpbp3. The experiment in a line: MIC by microdilution (CLSI). In kind it is cell-based. To be noted: Staphylococcus aureus, read-out: MICs.
Description: as §1, §2

Assay [5] relates to USA300 Δpbp4. As to the kind of experiment: MIC by microdilution (CLSI). It is filed as cell-based, Staphylococcus aureus.
Description: as §1, with “The present invention was described based on a series of experiments examining the biological basis for CA-MRSA strains versus HA-MRSA strains, focusing on the role of PBPs in CA-MRSA and generally in β-lactam resistance. Experiments” for “Experiments”
as §2

The test system of assay [6] is MW2 Δpbp4::pbp4. The experiment in a line: MIC by microdilution (CLSI). In kind it is cell-based, Staphylococcus aureus. Particulars: Staphylococcus aureus, read-out: MICs.
Description: as §1, with “The present invention was described based on a series of experiments examining the biological basis for CA-MRSA strains versus HA-MRSA strains, focusing on the role of PBPs in CA-MRSA and generally in β-lactam resistance. Experiments” for “Experiments”
as §2

For assay [7], the system named is MW2 Δpbp3. As to the kind of experiment: MIC by microdilution (CLSI). It is filed as cell-based, Staphylococcus aureus. Particulars: Staphylococcus aureus, read-out: MICs.
Description: as §1, with “The present invention was described based on a series of experiments examining the biological basis for CA-MRSA strains versus HA-MRSA strains, focusing on the role of PBPs in CA-MRSA and generally in β-lactam resistance. Experiments” for “Experiments”
as §2

Assay [8] concerns MW2 Δpbp3/4. The experiment in a line: MIC by microdilution (CLSI). It is filed as cell-based, Staphylococcus aureus. Particulars: Staphylococcus aureus, read-out: MICs.
Description: as §1, with “The present invention was described based on a series of experiments examining the biological basis for CA-MRSA strains versus HA-MRSA strains, focusing on the role of PBPs in CA-MRSA and generally in β-lactam resistance. Experiments” for “Experiments”
as §2

Assay [9] concerns N315 wild-type. As to the kind of experiment: MIC by microdilution (CLSI). Particulars: Staphylococcus aureus, read-out: MICs. It is filed as cell-based, Staphylococcus aureus.
Description: as §1, with “The present invention was described based on a series of experiments examining the biological basis for CA-MRSA strains versus HA-MRSA strains, focusing on the role of PBPs in CA-MRSA and generally in β-lactam resistance. Experiments” for “Experiments”
as §2

The test system of assay [10] is MW2 ex Δpbp4. The experiment in a line: MIC by microdilution (CLSI). To be noted: Staphylococcus aureus, read-out: MICs. It is filed as cell-based, Staphylococcus aureus.
Description: as §1, with “The present invention was described based on a series of experiments examining the biological basis for CA-MRSA strains versus HA-MRSA strains, focusing on the role of PBPs in CA-MRSA and generally in β-lactam resistance. Experiments” for “Experiments”
as §2

Assay [11] deals with MW2 Δpbp4. As to the kind of experiment: MIC by microdilution (CLSI). It is filed as cell-based, Staphylococcus aureus.
Description: as §1, with “The present invention was described based on a series of experiments examining the biological basis for CA-MRSA strains versus HA-MRSA strains, focusing on the role of PBPs in CA-MRSA and generally in β-lactam resistance. Experiments” for “Experiments”
as §2

Assay [12] concerns USA300 wild-type. The experiment in a line: MIC by microdilution (CLSI). Particulars: Staphylococcus aureus, USA300, read-out: MICs. In kind it is cell-based, Staphylococcus aureus.
Description: as §1, with “The present invention was described based on a series of experiments examining the biological basis for CA-MRSA strains versus HA-MRSA strains, focusing on the role of PBPs in CA-MRSA and generally in β-lactam resistance. Experiments” for “Experiments”
(§3) Although PBP4, similar to PBP2A, binds with low affinity to many β-lactams, PBP4 binds cefoxitin, a semi-synthetic β-lactam derived from cephamycin C, with high affinity (Nair, S. R. and C. E. Cherubin. 1978. Antimicrob. Agents Chemother. 14:866-875).
as §2

For assay [13], the system named is COL wild-type. The experiment in a line: MIC by microdilution (CLSI). In kind it is cell-based, Staphylococcus aureus. Particulars: Staphylococcus aureus, read-out: MICs.
Description: as §1, with “The present invention was described based on a series of experiments examining the biological basis for CA-MRSA strains versus HA-MRSA strains, focusing on the role of PBPs in CA-MRSA and generally in β-lactam resistance. Experiments” for “Experiments”
as §3, §2

For assay [14], the system named is MW2 (USA400) wild-type. The experiment in a line: MIC by microdilution (CLSI). It is filed as cell-based, Staphylococcus aureus. Particulars: Staphylococcus aureus, USA400, read-out: MICs.
Description: as §1, with “The present invention was described based on a series of experiments examining the biological basis for CA-MRSA strains versus HA-MRSA strains, focusing on the role of PBPs in CA-MRSA and generally in β-lactam resistance. Experiments” for “Experiments”
as §3, §2

The subject of assay [15] is PBP4. Particulars: cited from earlier work.
Assay [16] has as its system CA- and HA-MRSA strains. The experiment in a line: Synergy assay, cefuroxime with two-fold dilutions of oxacillin. In kind it is cell-based, Staphylococcus aureus. To be noted: in combination with two-fold dilutions of oxacillin. As for the experimental part: as §2

Take `CCOc1ccc2ccccc2c1C(=O)N[C@@H]1C(=O)N2[C@@H]1SC(C)(C)[C@@H]2C(=O)O` [NF, nafcillin]: the MIC in [1] stood at 256 µg/mL (≈ 618 µM); in assay [2], 1 µg/mL (≈ 2.41 µM); in assay [3], 16 µg/mL (≈ 38.6 µM); in [4] it was 16 µg/mL (≈ 38.6 µM); in assay [5] (Staphylococcus aureus, USA300, read-out: MICs) it was 1 µg/mL (≈ 2.41 µM); in [6] it was 16 µg/mL (≈ 38.6 µM). Besides, the MIC in assay [7] worked out at 16 µg/mL (≈ 38.6 µM); in [8], 1 µg/mL (≈ 2.41 µM); in [9], 64 µg/mL (≈ 154 µM); in [10], 1 µg/mL (≈ 2.41 µM); in assay [11] (Staphylococcus aureus, read-out: MICs) it was 1 µg/mL (≈ 2.41 µM); in [12], 16 µg/mL (≈ 38.6 µM). The values for the MIC in [13] and in assay [14] were 64 µg/mL (≈ 154 µM) and 16 µg/mL (≈ 38.6 µM), respectively. Besides, the “reduction in MIC on loss of pbp4” value in [5] ({}) and in assay [11] ({}) was 16 fold in each case.

In the case of `CN(C)CCn1nnnc1SCC1=C(C(=O)O)N2C(=O)[C@@H](NC(=O)Cc3csc(N)n3)[C@H]2SC1` [cefotiam], in assay [15], the “affinity for PBP4” value was “no affinity”.

For the molecule `CO/N=C(\C(=O)N[C@@H]1C(=O)N2C(C(=O)O)=C(COC(N)=O)CS[C@H]12)c1ccco1` [Cefuroxime, cefuroxime], in [15], the “affinity for PBP4” value is given as “very low affinity”. Moreover, the “effect on oxacillin MICs” value in assay [16] is on record as “no effect whatsoever”.
